One block for each compound: values may come before it.
How the values were obtained:
H2 -receptor = conditions: said in U.S. Pat. No. 4,203,909; cited from earlier work
H2 -receptors = biological target: T1, H2 -receptors (Rattus norvegicus, UniProt P25102); assay: H2-receptor blocking activity, histamine relaxation of KCl-contracted isolated rat uterine horns; type: cell-based; conditions: for Kb: antagonist 10^-5 molar for 30 minutes, rat uterine strips, histamine dose-response shift, read-out: pA2 (-log KB) (converted)
T1 construct: uterine horns removed therefrom and suspended at ambient temperatures in isolated organ baths; from tissue; host or cells: isolated uterine horns of estrone-treated female albino rats
T1 sequence (P25102 whole entry): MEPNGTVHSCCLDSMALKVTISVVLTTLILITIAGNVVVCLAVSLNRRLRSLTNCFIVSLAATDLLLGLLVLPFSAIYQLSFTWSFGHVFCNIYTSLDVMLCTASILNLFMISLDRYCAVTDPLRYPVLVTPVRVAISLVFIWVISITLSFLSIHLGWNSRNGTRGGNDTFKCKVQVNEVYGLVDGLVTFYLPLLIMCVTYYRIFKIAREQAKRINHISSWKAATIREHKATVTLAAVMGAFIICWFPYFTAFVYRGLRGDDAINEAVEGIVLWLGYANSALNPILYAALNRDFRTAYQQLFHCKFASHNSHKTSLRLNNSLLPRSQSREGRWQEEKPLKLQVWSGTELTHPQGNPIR
Description: The following assay for H2 -receptor blocking activity was employed. Female albino rats were treated with estrone 24 hours prior to the initiation of the experiment. The rats were sacrificed and the uterine horns removed therefrom and suspended at ambient temperatures in isolated organ baths containing De Jalon's solution. After equilibration, the uterine strips are exposed to 50 millimole aqueous potassium chloride, which produces a sustained contraction. When the uterus is so contracted, histamine produces a dose-dependent H2 -receptor-mediated relaxation. A control dose-response curve to histamine is constructed on each tissue. Following thorough washout of the histamine after obtaining the control dose-response curve, each antagonist (the compounds of this invention) is added for 30 minutes at a concentration of 10^-5 molar. The uterine strips are then contracted with aqueous potassium chloride in the presence of the antagonist and a second dose-response curve to histamine obtained. In the presence of a competitive antagonist, the dose-response curve to histamine is shifted in parallel to the right with no depression of the maximum relative to the control curve. The dose ratio (DR) is calculated for each concentration of antagonist by dividing the ED50 of histamine in the presence of the competitive antagonist by the control ED50 for histamine. The dissociation constant (KB ) of the antagonist is calculated from the dose-ratios by the following equation: […]
Cimetidine is included as an internal standard.

acid secretion = assay: in vivo antisecretory action on histamine-stimulated acid secretion in gastric fistula dogs
Description: An in vivo assay for antisecretory action of drugs on acid secretion utilizes gastric fistula dogs with vagally innervated gastric fistula and vagally denervated Heidenhain pouch. In this procedure, a steady-state gastric secretion is produced by the iv infusion of histamine. The antisecretory drugs under test are given either intravenously by infusion over a 30 minute period or orally 75 min. prior to collection of gastric secretion from the fistula.

H2 receptor = conditions: prior art; cited from earlier work

SMILES: C#CCNC(=C[N+](=O)[O-])NCCSCc1ccc(CN(C)C)o1 [1-nitro-2-(2-propynylamino)-2-(2-[(5-dimethylaminomethyl-2-furyl)methylthio]ethylamino)ethylene]
- times the activity of cimetidine (H2 -receptor): 7.45 times

- Kb (H2 -receptors): 1000 nM
SMILES: C#CCNC(=NC#N)NCCSCc1csc(CN(C)C)n1 [N-2-propynyl-N'-2-(2-dimethylaminomethyl-4-thiazolylmethylthio)ethyl-N"-cyanoguanidine]

- Kb (H2 -receptors): 186 nM
- times higher affinity for the H2 -receptors than cimetidine (H2 -receptors; relative to cimetidine internal standard): approximately 3.63 times
SMILES: C#CCNC(=C[N+](=O)[O-])NCCSCc1csc(CN(C)C)n1 [N-(2-propynyl)-N'-2-(2-dimethylaminomethyl-4-thiazolylmethylthio)ethyl 2-nitro-1,1-ethenediamine]
- ED50 (acid secretion; Canis lupus familiaris, 0.5 h, iv infusion over 30 minutes, histamine-stimulated gastric secretion): 0.068 µmol/kg
- times smaller ED50 (iv) than that found for cimetidine (acid secretion; iv, relative to cimetidine): over 7 times

SMILES: CNC(=C[N+](=O)[O-])NCCSCc1ccc(CN(C)C)o1 [ranitidine]
- H2 receptor antagonist activity compared with cimetidine (H2 receptor): greater H2 receptor antagonist activity than cimetidine
